Source: patent publication US4657907A, “Low dosage compositions of finely pulverized 2,4-diamino-6-(2,5-dichlorophenyl)-1,3,5-triazine and pharmaceutically acceptable acid addition salts thereof and administration thereof” (Nippon Shinyaku Co., Ltd., priority 1981, dated 1987)
Where “and” joins values, the source holds several entries; their conditions need not be identical. Equal values may be shown once.

Tests used:
[1] = Average particle diameter after jet milling, Coulter Counter TA-II; assay type: physicochemical; settings: jet mill PJM-100 NP; dispersed in physiological saline with Tween-80
Method: 2,4-diamino-6-(2,5-dichlorophenyl)-1,3,5-triazine and pharmaceutically acceptable acid addition salts thereof may be finely pulverized to achieve the average particle diameter of 20 microns or less by using jet Mill PJM-100NP (Nippon Newmatic MEG Co.). The pulverization is carried out by feeding 2 kg or less of the substance per hour. An average particle diameter of about 8 microns may be prepared in that manner. If necessary, auxiliary pulverizing agents such as starch, anhydrous silicic acid, etc. may be used. In measuring average particle size, the powder is dispersed in physiological saline solution containing one drop of Tween-80 with the aid of an ultrasonic homogenizer for 30 seconds and measured by Coleter Counter TA-II (Coulter Electronics Co., U.S.A.) equipped with aperture tube of 100 microns.
2,4-Diamino-6-(2,5-dichlorophenyl)-1,3,5-triazine is powdered by supplying it at a rate of not more than 2 kg/hour to a Jet Mill PJM-100 NP (Nippon Newmatic Mfg. Co.). The pulverized pharmaceutical is dispersed in a physiological saline solution containing one drop of Tween-80 by the use of ultrasonic homogenizer for 30 seconds and their particle diameter in average is measured by Coulter Counter TA-II (Coleter Eelectronics Co., USA) and the result is about 8 microns.

rats = assay: Acute toxicity (LD50), intraperitoneal injection; assay type: in vivo; settings: dosages up to 3000 mg/kg, average particle diameter about 8 microns
Excerpt: This decrease in toxicity is totally unexpected and represents a significant and important advance in the art.

[2] = tested on: ulcer formation induced by stress; assay: Inhibition of stress ulcer formation (immobilization-water immersion method), oral; assay type: in vivo, rats; settings: for dose dependency of stress ulcer inhibition: 0.3 to 30 mg/kg
Excerpt: Since 50 microns is a common particle diameter in pharmaceutical preparations, it was most surprising that such significant and important advantages resulted. Inhibition activity against stress ulcer in rats of the compound and pharmaceutically acceptable acid addition salts in the finely pulverized form are set forth in Table 2.

[3] = tested on: ulcer formation induced by stress; assay: as above; assay type: in vivo, rats; settings: average particle diameter about 50 microns; for Inhibition Rate (stress ulcer): three repeat values
ulcers = assay: Clinical experiments: rate of recovery or cure of ulcers in patients; assay type: in vivo, humans
Method: Clinical experiments were conducted wherein patients were given 1, 2 and 4 mg/day of 2,4-diamino-6-(2,5-dichlorophenyl)-1,3,5-triazine in separate groups. There were 133 patients participating in the group and 123 were separately analyzed (groups of 20, 46 and 57). The rate of recovery or cure of ulcers during those clinical trials over the period indicated was as follows: […]

[4] = Clinical experiments: side effects in patients; assay type: in vivo, humans; settings: 4 mg group
Method: Clinical experiments were conducted wherein patients were given 1, 2 and 4 mg/day of 2,4-diamino-6-(2,5-dichlorophenyl)-1,3,5-triazine in separate groups. There were 133 patients participating in the group and 123 were separately analyzed (groups of 20, 46 and 57). The rate of recovery or cure of ulcers during those clinical trials over the period indicated was as follows:
Only one side effect was noted. There was an increase in transaminase (GOT and GPT) observed in one case (1.8% of the total) in the 4 mg group.

[5] = Body weight increase inhibition on chronic oral administration; assay type: in vivo, rats; settings: for body weight increase: 10 mg/kg or more per day, chronic oral, rats
Excerpt: A further advantage resulted from body weight increase inhibition which is one of the main side effects of the compound and salts of the present invention. […] This is a side effect of triazines of this type.
The average particle sizes were 8 microns for the compound according our copending application as compared to the same compound having an average particle diameter of 50 microns.

[6] = 0.3 mg/kg, finely pulverized form
[7] = 1.0 mg/kg, finely pulverized form
[8] = 3.0 mg/kg, finely pulverized form
[9] = 10 mg/kg, finely pulverized form

With `Nc1nc(N)nc(-c2cc(Cl)ccc2Cl)n1` [Substance (I), 2,4-diamino-6-(2,5-dichlorophenyl)-1,3,5-triazine] the average particle diameter [1] was “about 8 microns”, the lethality (rats) was “no rats were killed” and the “Inhibition Rate (stress ulcer)” value [2, 6] was 33%. For the same compound, the “Inhibition Rate (stress ulcer)” value [2, 7] was 45%, the “Inhibition Rate (stress ulcer)” value [2, 8] was 63% and the “Inhibition Rate (stress ulcer)” value [2, 9] was 70%. For the same compound, the “Inhibition Rate (stress ulcer)” value ([2]; 30 mg/kg, finely pulverized form) was 85%, the “dose dependency of stress ulcer inhibition” value ([2]; finely pulverized form) was “linear dose dependency” and the “activity on ulcer formation induced by stress” value ([2]; oral, 1 mg/kg, finely pulverized (compound of earlier invention)) was “effective”. For the same compound, the “Inhibition Rate (stress ulcer)” value ([3]; 0.37 mg/kg per os) was 37% and 46% and 29%, the “Inhibition Rate (stress ulcer)” value ([3]; 3.72 mg/kg per os) was 62% and 47% and 33% and the “activity on ulcer formation induced by stress” value ([3]; oral, 5 mg/kg) was “ineffective”. The “rate of recovery or cure of ulcers” value (ulcers; 1 mg/day, 4 weeks) was 20.0%, the “rate of recovery or cure of ulcers” value (ulcers; 1 mg/day, 8 weeks) was 50.0% and the “rate of recovery or cure of ulcers” value (ulcers; 2 mg/day, 4 weeks) was 17.4%. For the same compound, the “rate of recovery or cure of ulcers” value (ulcers; 2 mg/day, 8 weeks) was 47.8%, the “rate of recovery or cure of ulcers” value (ulcers; 4 mg/day, 4 weeks) was 41.6% and the “rate of recovery or cure of ulcers” value (ulcers; 4 mg/day, 8 weeks) was 56.1%. For the same compound, the “recovery rate of ulcer improvement, degree of ulcer, effect against subjective and non-subjective symptoms” value (ulcers; hospitalized patients, 4 mg group compared with other groups) was “marked superiority”, the “increase in transaminase (GOT and GPT), cases” value ([4]; only side effect noted) was “one case” and the “increase in transaminase (GOT and GPT), incidence” value ([4]; printed as % of the total) was 1.8%. The body weight increase [5] was “body weight increase was inhibited”, the “recovery of body weight” value ([5]; about 8 microns compared to about 50 microns) was “far faster” and the “body weight increase inhibition (side effect)” value ([5]; average particle diameter about 8 microns) was “only transient and moderate”.
In the case of `Nc1nc(N)nc(-c2cc(Cl)ccc2Cl)n1` [Substance (II)], the “Inhibition Rate (stress ulcer)” value [2, 6] is reported as 35%, the “Inhibition Rate (stress ulcer)” value [2, 7] is reported as 51% and the “Inhibition Rate (stress ulcer)” value [2, 8] is reported as 70%. For the same compound, the “Inhibition Rate (stress ulcer)” value [2, 9] was 85%, the “dose dependency of stress ulcer inhibition” value ([2]; finely pulverized form) was “linear dose dependency” and the “ED50 (stress ulcer inhibition)” value ([2]; per os, finely pulverized form, from Table 2 data) was 0.90 mg/kg. The body weight increase [5] was “body weight increase was inhibited” and the “improvement in body weight side effect” value ([5]; maleate salt according to the invention compared with maleate salt of about 50 microns) was “particularly dramatic”.
